The source made the active and inactive calls. The rule behind the calls is not given here.
Legend:
[1] = biological target: P2Y purinoceptor 6 (Homo sapiens, UniProt Q15077); experiment: Antagonist activity at human P2Y6R expressed in CHO cells assessed as inhibition of UDP sodium salt-induced Ca2+ level by FLIPR calcium 6 assay; format: functional, cell-based
[2] = biological target: P2Y purinoceptor 4 (Homo sapiens, UniProt P51582); experiment: Antagonist activity at human P2Y4R stably expressed in HEK293 cells assessed as inhibition of UTP-induced IP3 accumulation preincubated with compound for 30 mins followed by UTP addition by ELISA
[3] = Clearance in male Sprague-Dawley rat at 20 mg/kg, po measured after 24 hrs by LC-MS/MS analysis; format: ADME, organism-based; details: in vivo
[4] = Half-life in male Sprague-Dawley rat at 20 mg/kg, po measured after 24 hrs by LC-MS/MS analysis; format: ADME, organism-based; details: in vivo, po, 20 mg/kg, 24 h
[5] = AUC (0 to 24 hrs) in male Sprague-Dawley rat at 20 mg/kg, po measured after 24 hrs by LC-MS/MS analysis; format: ADME, organism-based; details: in vivo, po, 20 mg/kg, 24 h
[6] = Cmax in male Sprague-Dawley rat at 10 mg/kg, iv measured after 24 hrs by LC-MS/MS analysis; format: ADME, organism-based; details: in vivo, iv, 10 mg/kg, 24 h
[7] = Cmax in male Sprague-Dawley rat at 20 mg/kg, po measured after 24 hrs by LC-MS/MS analysis; format: ADME, organism-based; details: in vivo, po, 20 mg/kg, 24 h
[8] = Clearance in male Sprague-Dawley rat at 10 mg/kg, iv measured after 24 hrs by LC-MS/MS analysis; format: ADME, organism-based; details: in vivo
[9] = Half-life in male Sprague-Dawley rat at 10 mg/kg, iv measured after 24 hrs by LC-MS/MS analysis; format: ADME, organism-based; details: in vivo, iv, 10 mg/kg, 24 h
[10] = AUC (0 to 24 hrs) in male Sprague-Dawley rat at 10 mg/kg, iv measured after 24 hrs by LC-MS/MS analysis; format: ADME, organism-based; details: in vivo
[11] = Oral bioavailability in male Sprague-Dawley rat at 20 mg/kg measured after 24 hrs by LC-MS/MS analysis; format: ADME, organism-based; details: in vivo, po, 20 mg/kg, 24 h
[12] = Tmax in male Sprague-Dawley rat at 20 mg/kg, po measured after 24 hrs by LC-MS/MS analysis; format: ADME, organism-based; details: in vivo, po, 20 mg/kg, 24 h
[13] = Tmax in male Sprague-Dawley rat at 10 mg/kg, iv measured after 24 hrs by LC-MS/MS analysis; format: ADME, organism-based; details: in vivo, iv, 10 mg/kg, 24 h
[14] = system: Mus musculus; experiment: Anti-inflammatory activity in LPS-induced male C57BL/6 mouse model of acute […] injury assessed as reduction in infiltration of immune cells by measuring decrease in WBC count at 2 mg/kg, IG preadministered with compound for 7 days followed by LPS administration and measured after 24 hrs; format: functional, organism-based; details: time 8.0 day
[15] = system: Mus musculus; experiment: (§1) Anti-inflammatory activity in LPS-induced male C57BL/6 mouse model of acute […] injury assessed as reduction in interstitial edema in lung at 2 mg/kg, IG preadministered with compound for 7 days followed by LPS administration and measured after 24 hrs by H and E staining based histopathological analysis; format: functional, organism-based; details: time 8.0 day
[16] = system: Mus musculus; experiment: as §1, with “absence of lesion” for “reduction in interstitial edema”, “lung parenchyma” for “lung”; format: functional, organism-based; details: time 8.0 day
[17] = system: Mus musculus; experiment: Anti-inflammatory activity in LPS-induced male C57BL/6 mouse model of acute […] injury assessed as reduction in infiltration of immune cells by measuring decrease in neutrophil count at 2 mg/kg, IG preadministered with compound for 7 days followed by LPS administration and measured after 24 hrs; format: functional, organism-based; details: time 8.0 day
[18] = system: Mus musculus; experiment: as §1, with “alveolar septa thickening” for “interstitial edema”; format: functional, organism-based; details: time 8.0 day
[19] = system: Mus musculus; experiment: Anti-inflammatory activity in LPS-induced male C57BL/6 mouse model of acute […] injury assessed as reduction in TNF-alpha level in BALF at 2 mg/kg, IG preadministered with compound for 7 days followed by LPS administration and measured after 24 hrs by ELISA; format: functional, organism-based; details: time 8.0 day
[20] = system: Mus musculus; experiment: as §1, with “tissue destruction” for “interstitial edema”; format: functional, organism-based; details: time 8.0 day
[21] = system: Mus musculus; experiment: as §1, with “hyperemia of pulmonary alveolar septa” for “interstitial edema”; format: functional, organism-based; details: time 8.0 day
[22] = system: Mus musculus; experiment: as §1, with “intact appearance of alveolar structure” for “reduction in interstitial edema”; format: functional, organism-based; details: time 8.0 day
[23] = system: Mus musculus; experiment: Anti-inflammatory activity in LPS-induced male C57BL/6 mouse model of acute […] injury assessed as reduction in IL-1beta level in BALF at 2 mg/kg, IG preadministered with compound for 7 days followed by LPS administration and measured after 24 hrs by ELISA; format: functional, organism-based; details: time 8.0 day
[24] = system: Mus musculus; experiment: as §1, with “inflammatory infiltration” for “interstitial edema”; format: functional, organism-based; details: time 8.0 day
[25] = system: Mus musculus; experiment: Anti-inflammatory activity in LPS-induced male C57BL/6 mouse model of acute […] injury assessed as reduction in infiltration of immune cells by measuring decrease in lymphocytes count at 2 mg/kg, IG preadministered with compound for 7 days followed by LPS administration and measured after 24 hrs; format: functional, organism-based; details: time 8.0 day
[26] = system: Mus musculus; experiment: Anti-inflammatory activity in LPS-induced male C57BL/6 mouse model of acute […] injury assessed as reduction in infiltration of immune cells by measuring decrease in monocytes count at 2 mg/kg, IG preadministered with compound for 7 days followed by LPS administration and measured after 24 hrs; format: functional, organism-based; details: time 8.0 day
[27] = system: Mus musculus; experiment: Anti-inflammatory activity in LPS-induced male C57BL/6 mouse model of acute […] injury assessed as reduction in IL-6 level in BALF at 2 mg/kg, IG preadministered with compound for 7 days followed by LPS administration and measured after 24 hrs by ELISA; format: functional, organism-based; details: time 8.0 day
[28] = biological target: P2Y purinoceptor 12 (Homo sapiens, UniProt Q9H244); experiment: Antagonist activity at human P2Y12R stably expressed in HEK293 cells assessed as inhibition of MeSADP-induced cAMP accumulation preincubated with compound for 30 mins followed by MeSADP addition by cAMP-GloTM assay; format: functional, cell-based
Chain of P2Y purinoceptor 12 (Q9H244 whole entry): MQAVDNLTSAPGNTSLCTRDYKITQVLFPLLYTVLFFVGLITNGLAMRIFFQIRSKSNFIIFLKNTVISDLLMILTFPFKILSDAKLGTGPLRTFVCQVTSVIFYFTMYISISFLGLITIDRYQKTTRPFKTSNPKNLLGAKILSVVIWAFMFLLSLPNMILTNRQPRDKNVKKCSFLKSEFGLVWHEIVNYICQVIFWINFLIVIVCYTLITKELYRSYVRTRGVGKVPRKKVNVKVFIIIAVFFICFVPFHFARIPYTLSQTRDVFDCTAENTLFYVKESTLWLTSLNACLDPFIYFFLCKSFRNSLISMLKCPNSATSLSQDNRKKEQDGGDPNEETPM

Chain of P2Y purinoceptor 6 (Q15077 whole entry): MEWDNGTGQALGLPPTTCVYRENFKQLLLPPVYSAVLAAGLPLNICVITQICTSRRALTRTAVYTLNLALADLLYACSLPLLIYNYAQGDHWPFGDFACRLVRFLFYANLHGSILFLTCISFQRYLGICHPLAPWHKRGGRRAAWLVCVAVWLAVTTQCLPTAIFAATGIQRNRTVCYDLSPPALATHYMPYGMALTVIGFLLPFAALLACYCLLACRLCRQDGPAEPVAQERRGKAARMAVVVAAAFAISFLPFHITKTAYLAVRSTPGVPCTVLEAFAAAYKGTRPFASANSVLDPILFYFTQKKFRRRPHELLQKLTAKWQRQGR
Chain of P2Y purinoceptor 4 (P51582 whole entry): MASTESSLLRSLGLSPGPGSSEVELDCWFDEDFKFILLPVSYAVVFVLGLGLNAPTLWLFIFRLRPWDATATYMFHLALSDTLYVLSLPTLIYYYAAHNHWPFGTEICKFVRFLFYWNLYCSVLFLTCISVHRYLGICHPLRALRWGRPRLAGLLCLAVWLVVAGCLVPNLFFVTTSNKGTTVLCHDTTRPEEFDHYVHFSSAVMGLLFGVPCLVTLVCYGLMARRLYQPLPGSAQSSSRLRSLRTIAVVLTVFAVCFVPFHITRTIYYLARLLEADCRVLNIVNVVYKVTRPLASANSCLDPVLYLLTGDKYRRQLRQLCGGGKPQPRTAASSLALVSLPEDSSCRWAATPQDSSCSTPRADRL

Row | IC50 [1] | Compound | also measured
1 | 41.5 nM | Cc1cccc2cc(C3CC(c4ccccc4)=NN3C(=O)CCC(=O)O)c(Cl)nc12 (stereo unspecified) | –
2 | 52.8 nM | Cc1ccc2nc(Cl)c(C3CC(c4ccco4)=NN3C(=O)CCC(=O)O)cc2c1 (stereo unspecified) | –
3 | 84.6 nM | Cc1ccc(C2=NN(C(=O)CCC(=O)O)C(c3cc4ccc(C)cc4nc3Cl)C2)cc1 (stereo unspecified) | –
4 | > 500 nM | Cc1ccc2cc(C3CC(c4ccc5ccccc5c4)=NN3C(=O)CCC(=O)O)c(Cl)nc2c1 (stereo unspecified) | –
5 | 249 nM | O=C(O)CCC(=O)N1N=C(c2ccc[nH]2)CC1c1cc2ccccc2nc1Cl (stereo unspecified) | –
6 | 168 nM | Cc1ccc2cc(C3CC(c4ccc(-c5ccccc5)cc4)=NN3C(=O)CCC(=O)O)c(Cl)nc2c1 (stereo unspecified) | CL/F [3]: 20.1 mL/min/kg; t1/2 [4]: 12 min; AUC [5]: 2356 ng·h/mL; Cmax [6]: 864 ng/mL; Cmax [7]: 1211 ng/mL; clearance [8]: 13.5 mL/min/kg; t1/2 [9]: 6 min; AUC [10]: 1854 ng·h/mL; F [11]: 16%; Tmax [12]: 14 min; Tmax [13]: 9 min
7 | 66.8 nM | Cc1ccc2nc(Cl)c(C3CC(c4ccc[nH]4)=NN3C(=O)CCC(=O)O)cc2c1 (stereo unspecified) | –
8 | 386 nM | O=C(O)/C=C\C(=O)N1N=C(c2ccc[nH]2)CC1c1cnc2ccccc2c1 (stereo unspecified) | –
9 | 421 nM | O=C(O)CCC(=O)N1N=C(c2ccc[nH]2)CC1c1cc2ccc(F)cc2nc1Cl (stereo unspecified) | –
10 | > 500 nM | Cc1ccc2cc(C3CC(c4ccco4)=NN3C(=O)CCCC(=O)O)c(Cl)nc2c1 (stereo unspecified) | –
11 | > 500 nM | Cc1ccc2cc(C3CC(c4ccccc4F)=NN3C(=O)CCC(=O)O)c(Cl)nc2c1 (stereo unspecified) | –
12 | 106 nM | Cc1ccc2nc(Cl)c(C3CC(c4ccccc4)=NN3C(=O)CCC(=O)O)cc2c1 (stereo unspecified) | –
13 | 53.7 nM | Cc1cccc2cc(C3CC(c4ccc[nH]4)=NN3C(=O)CCC(=O)O)c(Cl)nc12 (stereo unspecified) | –
14 | 106 nM | COc1ccc(C2=NN(C(=O)CCC(=O)O)C(c3cc4ccc(C)cc4nc3Cl)C2)cc1 (stereo unspecified) | –
15 | 29.6 nM | Cc1ccc2cc(C3CC(c4ccc[nH]4)=NN3C(=O)CCC(=O)O)c(Cl)nc2c1 (stereo unspecified) | –
16 | 274 nM | O=C(O)CCC(=O)N1N=C(c2ccccc2)CC1c1cc2ccccc2nc1Cl (stereo unspecified) | –
17 | 54.6 nM | Cc1ccc2cc(C3CC(c4ccccc4)=NN3C(=O)CCC(=O)O)c(Cl)nc2c1 (stereo unspecified) | –
18 | 34.6 nM | Cc1cccc2cc(C3CC(c4ccco4)=NN3C(=O)CCC(=O)O)c(Cl)nc12 (stereo unspecified) | –
19 | 69.4 nM | Cc1ccc2cc(C3CC(c4ccc(C(C)(C)C)cc4)=NN3C(=O)CCC(=O)O)c(Cl)nc2c1 (stereo unspecified) | –

The next lines start with the molecule.

Row | Compound | IC50 [1] | also measured
20 | O=C(O)CCC(=O)N1N=C(c2ccccc2)CC1c1cc2ccc(F)cc2nc1Cl (stereo unspecified) | 187 nM | –
21 | O=C(O)CCC(=O)N1N=C(c2ccco2)CC1c1cc2ccccc2nc1Cl (stereo unspecified) | 186 nM | –
22 | Cc1ccc2cc(C3CC(c4cccs4)=NN3C(=O)CCC(=O)O)c(Cl)nc2c1 (stereo unspecified) | 324 nM | –
23 | Cc1ccc2cc(C3CC(c4ccco4)=NN3C(=O)CCC(=O)O)c(Cl)nc2c1 (stereo unspecified) | 26.5 nM | –
24 | O=C(C1CC1)N1CCc2cc(Br)c(S(=O)(=O)Nc3ccc(Cl)c(C(F)(F)F)c3)cc21 | – | IC50 [2]: 12500 nM
25 | Cc1cccc(C2=NN(C(=O)CCC(=O)O)C(c3cc4ccc(C)cc4nc3Cl)C2)c1 (stereo unspecified) | 125 nM | –
26 | Cc1ccc2cc(C3CC(c4cccnc4)=NN3C(=O)CCC(=O)O)c(Cl)nc2c1 (stereo unspecified) | 279 nM | –
27 | COc1cccc(C2=NN(C(=O)CCC(=O)O)C(c3cc4ccc(C)cc4nc3Cl)C2)c1 (stereo unspecified) | 77.5 nM | –
28 | Cc1ccc2cc(C3CC(c4ccco4)=NN3C(=O)C=CC(=O)O)c(Cl)nc2c1 (stereo unspecified) | 291 nM | –
29 | C[C@@H]1C[C@H]2[C@@H]3CCC4=CC(=O)C=C[C@]4(C)[C@@]3(F)[C@@H](O)C[C@]2(C)[C@@]1(O)C(=O)CO | – | Activity [14]: Active; Activity [15]: Active; Activity [16]: Active; Activity [17]: Active; Activity [18]: Active; Activity [19]: Active; Activity [20]: Active; Activity [21]: Active; Activity [22]: Active; Activity [23]: Active; Activity [24]: Active; Activity [25]: Active; Activity [26]: Active; Activity [27]: Active
30 | O=C(O)CCC(=O)N1N=C(c2ccco2)CC1c1cnc2ccccc2c1 (stereo unspecified) | 26.7 nM | –
31 | Cc1ccc2cc(C3CC(c4ccc(O)cc4)=NN3C(=O)CCC(=O)O)c(Cl)nc2c1 (stereo unspecified) | > 500 nM | –
32 | Cc1ccc2cc(C3CC(c4cccc(C(F)(F)F)c4)=NN3C(=O)CCC(=O)O)c(Cl)nc2c1 (stereo unspecified) | > 500 nM | –
33 | Cc1ccc2cc(C3CC(c4c[nH]c5ccccc45)=NN3C(=O)CCC(=O)O)c(Cl)nc2c1 (stereo unspecified) | 148 nM | –
34 | CCCSc1nc(N[C@@H]2C[C@H]2c2ccc(F)c(F)c2)c2nnn([C@@H]3C[C@H](OCCO)[C@@H](O)[C@H]3O)c2n1 [TICAGRELOR] | – | IC50 [28]: 1220 nM
35 | O=C(O)CCCC(=O)N1N=C(c2ccc[nH]2)CC1c1cnc2ccccc2c1 (stereo unspecified) | 200 nM | –
36 | O=C(O)CCC(=O)N1N=C(c2ccco2)CC1c1cc2ccc(F)cc2nc1Cl (stereo unspecified) | 210 nM | –
37 | O=C(O)CCC(=O)N1N=C(c2ccccc2)CC1c1cnc2ccccc2c1 (stereo unspecified) | 39.8 nM | –
